Structures can show the parent of a compound that is named as a salt.
Assays:
Assay in all cases: Kinome inhibition assay
Assay type in all cases: biochemical
[1] = target: GSK3B (Homo sapiens, UniProt P49841)
Method: (§1) Kinome inhibition studies were conducted following the procedures described in literature. […] In general, each purified kinase was incubated with its substrate in buffer (MOPS buffer or HEPES buffer) containing an essential metal co-enzyme or cofactor, antioxidant, and ATP (gamma-P^32 radio-labeled ATP or cold ATP). Compound 2 was co-incubated with the kinase solution thus obtained for 0.5-1 hr at 37° C. The reaction was stopped by boiling the reaction solution with an extra SDS solution. The phosphorylation level of the substrate was monitored ether by quantification of the radio-labeled substrate or by quantification of phosphor-substrate specific antibodies. In each study, a reference standard was run as an integral part to ensure the validity of the experimental results obtained. The table below includes the IC50 values obtained from this experiment.

[2] = target: ERBB2 (HER2) (Homo sapiens, UniProt P04626)
Chain of ERBB2 (HER2) (P04626 23-1255): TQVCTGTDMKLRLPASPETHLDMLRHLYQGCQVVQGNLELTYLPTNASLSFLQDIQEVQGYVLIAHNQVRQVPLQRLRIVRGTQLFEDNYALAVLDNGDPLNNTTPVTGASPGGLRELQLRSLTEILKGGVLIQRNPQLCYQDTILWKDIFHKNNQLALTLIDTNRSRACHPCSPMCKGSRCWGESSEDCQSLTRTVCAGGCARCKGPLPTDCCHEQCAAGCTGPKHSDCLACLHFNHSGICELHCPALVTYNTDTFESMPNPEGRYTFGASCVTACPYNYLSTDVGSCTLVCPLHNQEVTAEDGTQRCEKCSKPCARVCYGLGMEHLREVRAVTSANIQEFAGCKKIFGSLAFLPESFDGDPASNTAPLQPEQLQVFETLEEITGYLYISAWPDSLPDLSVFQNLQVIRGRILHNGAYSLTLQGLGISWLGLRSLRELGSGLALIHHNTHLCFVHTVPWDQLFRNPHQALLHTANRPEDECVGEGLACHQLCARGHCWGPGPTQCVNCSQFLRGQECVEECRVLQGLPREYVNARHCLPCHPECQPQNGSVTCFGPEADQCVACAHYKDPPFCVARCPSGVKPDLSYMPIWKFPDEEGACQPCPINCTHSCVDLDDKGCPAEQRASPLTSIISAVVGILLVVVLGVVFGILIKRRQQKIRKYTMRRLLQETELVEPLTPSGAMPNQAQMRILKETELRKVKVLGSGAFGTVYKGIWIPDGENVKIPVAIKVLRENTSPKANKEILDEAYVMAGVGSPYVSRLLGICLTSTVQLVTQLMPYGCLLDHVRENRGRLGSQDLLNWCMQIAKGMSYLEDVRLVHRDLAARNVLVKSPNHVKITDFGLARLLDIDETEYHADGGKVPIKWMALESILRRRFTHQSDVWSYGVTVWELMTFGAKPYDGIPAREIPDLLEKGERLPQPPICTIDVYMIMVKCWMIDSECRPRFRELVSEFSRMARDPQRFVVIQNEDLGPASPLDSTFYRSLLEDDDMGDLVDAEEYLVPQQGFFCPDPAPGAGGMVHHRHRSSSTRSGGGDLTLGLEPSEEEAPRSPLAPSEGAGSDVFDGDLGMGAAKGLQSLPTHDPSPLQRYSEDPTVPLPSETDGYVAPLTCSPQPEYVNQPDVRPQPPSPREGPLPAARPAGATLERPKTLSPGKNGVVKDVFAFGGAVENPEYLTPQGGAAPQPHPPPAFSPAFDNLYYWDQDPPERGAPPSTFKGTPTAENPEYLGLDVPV
Method: as §1

[3] = target: SGK2 (Homo sapiens, UniProt Q9HBY8)
Chain of SGK2 (Q9HBY8 whole entry): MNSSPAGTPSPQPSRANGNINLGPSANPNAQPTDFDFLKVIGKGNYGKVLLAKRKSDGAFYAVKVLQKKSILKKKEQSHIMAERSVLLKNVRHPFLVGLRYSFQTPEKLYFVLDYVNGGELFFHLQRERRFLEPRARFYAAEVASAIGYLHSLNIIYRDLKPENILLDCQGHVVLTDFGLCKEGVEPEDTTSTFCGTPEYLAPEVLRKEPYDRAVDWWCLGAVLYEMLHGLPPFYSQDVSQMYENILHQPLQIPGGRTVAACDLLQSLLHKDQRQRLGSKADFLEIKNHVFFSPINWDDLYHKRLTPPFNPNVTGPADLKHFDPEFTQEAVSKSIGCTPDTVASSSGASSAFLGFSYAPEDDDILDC
Method: as §1

[4] = target: MAPK8 (JNK1) (Homo sapiens, UniProt P45983)
Chain of MAPK8 (JNK1) (P45983 whole entry): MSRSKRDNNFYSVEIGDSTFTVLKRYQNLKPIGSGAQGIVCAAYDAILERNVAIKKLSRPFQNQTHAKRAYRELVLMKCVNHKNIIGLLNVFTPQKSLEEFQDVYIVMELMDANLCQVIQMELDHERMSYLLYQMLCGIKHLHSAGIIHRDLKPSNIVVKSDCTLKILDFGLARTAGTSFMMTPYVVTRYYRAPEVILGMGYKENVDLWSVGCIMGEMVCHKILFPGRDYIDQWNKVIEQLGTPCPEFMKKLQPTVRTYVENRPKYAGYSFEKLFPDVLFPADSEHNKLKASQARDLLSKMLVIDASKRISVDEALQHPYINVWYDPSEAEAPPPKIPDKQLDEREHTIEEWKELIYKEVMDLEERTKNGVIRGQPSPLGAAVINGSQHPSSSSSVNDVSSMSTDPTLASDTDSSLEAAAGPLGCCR
Method: as §1

[5] = target: RP56KA5 (MSK1) (Homo sapiens, UniProt O75582)
Chain of RP56KA5 (MSK1) (O75582 whole entry): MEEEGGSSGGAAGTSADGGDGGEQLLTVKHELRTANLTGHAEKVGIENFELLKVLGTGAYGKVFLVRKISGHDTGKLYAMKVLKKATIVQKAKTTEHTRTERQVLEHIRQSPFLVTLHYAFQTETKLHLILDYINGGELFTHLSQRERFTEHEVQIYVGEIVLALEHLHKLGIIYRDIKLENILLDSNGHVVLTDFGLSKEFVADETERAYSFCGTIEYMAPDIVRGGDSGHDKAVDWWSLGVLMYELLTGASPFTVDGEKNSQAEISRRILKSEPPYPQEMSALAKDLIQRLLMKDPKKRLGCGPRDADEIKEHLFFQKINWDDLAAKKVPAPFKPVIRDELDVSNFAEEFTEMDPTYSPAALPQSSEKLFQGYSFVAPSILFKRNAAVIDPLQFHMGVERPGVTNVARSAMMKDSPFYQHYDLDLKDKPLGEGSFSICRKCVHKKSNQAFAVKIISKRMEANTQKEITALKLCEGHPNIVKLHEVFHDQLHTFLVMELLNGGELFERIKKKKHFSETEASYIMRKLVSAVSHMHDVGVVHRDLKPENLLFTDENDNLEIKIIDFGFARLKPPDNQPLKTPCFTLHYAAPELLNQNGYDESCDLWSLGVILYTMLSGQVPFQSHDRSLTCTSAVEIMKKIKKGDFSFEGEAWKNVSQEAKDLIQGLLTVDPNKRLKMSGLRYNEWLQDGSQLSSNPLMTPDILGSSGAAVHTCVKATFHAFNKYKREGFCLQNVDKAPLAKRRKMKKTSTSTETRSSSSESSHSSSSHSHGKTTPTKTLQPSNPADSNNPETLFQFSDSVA
Method: as §1

[6] = target: SGK1 (Homo sapiens, UniProt O00141)
Chain of SGK1 (O00141 whole entry): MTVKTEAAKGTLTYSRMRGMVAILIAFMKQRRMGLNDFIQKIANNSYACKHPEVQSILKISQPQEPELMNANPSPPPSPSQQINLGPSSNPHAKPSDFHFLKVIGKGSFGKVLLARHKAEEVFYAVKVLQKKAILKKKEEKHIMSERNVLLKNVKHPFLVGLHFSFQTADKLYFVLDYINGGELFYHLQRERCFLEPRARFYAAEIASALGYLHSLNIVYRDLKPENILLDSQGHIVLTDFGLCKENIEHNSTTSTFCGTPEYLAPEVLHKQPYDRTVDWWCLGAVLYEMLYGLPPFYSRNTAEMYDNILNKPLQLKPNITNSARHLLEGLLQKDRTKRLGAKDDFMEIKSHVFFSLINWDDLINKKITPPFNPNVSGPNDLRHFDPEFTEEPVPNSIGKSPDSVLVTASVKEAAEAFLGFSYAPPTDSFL
Method: as §1

[7] = target: PIM1 (Homo sapiens, UniProt P11309)
Chain of PIM1 (P11309 whole entry): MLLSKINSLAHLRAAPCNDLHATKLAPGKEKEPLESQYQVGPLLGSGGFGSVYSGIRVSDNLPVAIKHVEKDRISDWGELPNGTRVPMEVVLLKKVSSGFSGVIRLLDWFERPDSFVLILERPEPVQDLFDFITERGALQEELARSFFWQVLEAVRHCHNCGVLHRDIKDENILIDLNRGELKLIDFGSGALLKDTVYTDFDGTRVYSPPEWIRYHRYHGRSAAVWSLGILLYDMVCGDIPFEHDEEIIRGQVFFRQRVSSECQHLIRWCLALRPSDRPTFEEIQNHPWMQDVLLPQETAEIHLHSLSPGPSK
Method: as §1

[8] = @ 30 μM, read-out: Single dose inhibition
[9] = @ 10 μM, read-out: Single dose inhibition

Chain of GSK3B (P49841 whole entry): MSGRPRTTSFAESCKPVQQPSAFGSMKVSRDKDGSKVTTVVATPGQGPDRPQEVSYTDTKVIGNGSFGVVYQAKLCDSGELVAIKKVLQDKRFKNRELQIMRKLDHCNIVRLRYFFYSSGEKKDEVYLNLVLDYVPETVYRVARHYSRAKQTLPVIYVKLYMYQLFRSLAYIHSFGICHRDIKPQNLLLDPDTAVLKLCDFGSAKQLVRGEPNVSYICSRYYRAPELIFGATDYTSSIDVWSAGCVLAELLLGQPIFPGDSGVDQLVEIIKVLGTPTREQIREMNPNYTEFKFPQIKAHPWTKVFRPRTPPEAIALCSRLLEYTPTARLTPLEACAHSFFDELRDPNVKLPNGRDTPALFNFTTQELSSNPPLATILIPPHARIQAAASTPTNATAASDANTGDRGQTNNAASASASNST

O=c1[nH]/c(=C\c2ccc(OCc3ccncc3)cn2)c(=O)[nH]/c1=C\c1ccccc1 [Compound 2, 3-benzylidene-6-((5-(pyridin-4-ylmethoxy)pyridin-2-yl)methylene)piperazine-2,5-dione methanesulfonic acid salt]
inhibition at 30 µM [1, 8]: 69%
IC50 ([1]; GSK3B, Human): 10.9 µM
inhibition at 10 µM [2, 9]: 69%
IC50 ([2]; ERBB2 (HER2), Human): 5.56 µM
inhibition at 10 µM [3, 9]: 78%
IC50 ([3]; SGK2, Human): 3.55 µM
inhibition at 10 µM [4, 9]: 74%
IC50 ([4]; MAPK8 (JNK1), Human): 4.79 µM
inhibition at 10 µM [5, 9]: 53%
IC50 ([5]; RP56KA5 (MSK1), Human): 7.88 µM
inhibition at 10 µM [6, 9]: 83%
IC50 ([6]; SGK1, Human): 2.92 µM
inhibition at 30 µM [7, 8]: 98%
IC50 ([7]; PIM1, Human): 9.52 µM
